≈ marks a conversion by molar mass, not a printed value.
Details: buffer; pH 7.4; 200.0 µM

SMILES	solubility kinetic [µg/mL]
CCNC(=S)Nc1cccc(NC(=O)c2ccccc2O)c1	42 (≈ 133 µM)
Cc1ccc(C(=O)NCC(=O)N2CCCCCC2)cc1	> 41.2
O=C(Nc1cccc(C(F)(F)F)c1)OCc1ccncc1	12.4 (≈ 41.9 µM)
Cc1ccc(CC2CC(=O)N(CCc3ccccc3)C2=O)cc1 (centres undefined)	2.9 (≈ 9.43 µM)
Nc1ncc2[nH]cnc2n1.O=[N+]([O-])O	> 29.7
O=C(O)/C=C/c1ccc(Oc2ncccn2)cc1	> 36.3
COc1ccccc1N1CCN(C(=O)c2cc(C)oc2C)CC1	> 47.2
CCC(C)c1ccc(C(CC)NC(=O)C2CCCO2)cc1 (centres undefined)	34.5 (≈ 119 µM)
CCOC(=O)N1CCC(NC(=O)c2ccc(Cl)cc2)CC1	> 46.6
O=C(COc1ccc2ccccc2c1)Nc1nccs1	3.9 (≈ 13.7 µM)
CCOc1ncccc1C(=O)OC(C)C(=O)Nc1ccc(N2CCOCC2)cc1 (centres undefined)	27.5 (≈ 68.8 µM)
Cc1ccc(S(=O)(=O)NC2=NCN(CC(=O)[O-])CN2)cc1.[Na+]	> 50.1
Cc1cccc(CC(=O)c2c[nH]c3ccccc23)c1	0.9 (≈ 3.61 µM)
CCOc1ccccc1Nc1nc(-c2cccnc2)cs1	10.6 (≈ 35.6 µM)
COc1ccccc1C1CCN(C(=O)C2CCCCC2)CC1	38.6 (≈ 128 µM)
Cc1ccc(C)c(S(=O)(=O)NCC(=O)N2CCCC2)c1	41.4 (≈ 140 µM)
Cc1cccc(C(=O)NC(=S)N(C)C2CCCCC2)c1	35.9 (≈ 124 µM)
Cc1ccccc1NC(=O)Cn1c(=O)oc2ccccc21	14.4 (≈ 51 µM)
O=C(NC1CC1)C1CC(=O)N(c2cccc(Cl)c2Cl)C1 (centres undefined)	> 47
CCn1cc(CCC(=O)NC2CCCC2)c2ccccc21	40.4 (≈ 142 µM)

SMILES	solubility kinetic [µg/mL]
CN(C)c1ccc(-c2nc3ccccc3c(=O)[nH]2)cc1	1.9 (≈ 7.16 µM)
C=CCNC(=O)c1cnn(-c2ccccc2)c1-c1ccccc1	> 45.5
CN(C)/C(=N\S(=O)(=O)c1ccccc1)c1ccc(F)cc1	> 46
Cc1ccc(Nc2c3c(nc4ccccc24)CCC3)cc1.Cl	33.4
COc1ccc(NC(=O)c2ccccc2C)cc1	27.1 (≈ 112 µM)
O=C(COC(=O)CCC1CCCC1)Nc1ccc(F)cc1Cl	3.4 (≈ 10.4 µM)
Nc1nc(O)c(Sc2ccccc2[N+](=O)[O-])c(=O)[nH]1	> 42
Cc1cccc(NC(=O)CCN2CCC(C(N)=O)CC2)c1	41.1 (≈ 142 µM)
Cc1ccc(NC(=O)CCN2C(=O)OC(C)(C)C2(C)O)cc1 (centres undefined)	34 (≈ 111 µM)
CCOc1ccccc1NCc1cc(=O)oc2cc(C)ccc12	6.2 (≈ 20 µM)
CCOC(=O)c1c(/N=C/C2C(=O)NC(=O)NC2=O)sc2c1CCC2	5.4 (≈ 15.5 µM)
Clc1ccc(CNc2ccc(N3CCN(Cc4ccccc4)CC3)cc2)cc1	1 (≈ 2.55 µM)
Cc1cc(C(=O)N2CCC(C(N)=O)CC2)c(C)o1	> 37.5
CC(C)CC(=O)Nc1cccc(-c2nc3ncccc3o2)c1	31.8 (≈ 108 µM)
CCC1(C)Cc2ccccc2-c2nc(NCCCO)[nH]c(=O)c21 (centres undefined)	44 (≈ 140 µM)
O=C(Nc1ccccc1NS(=O)(=O)c1ccc(F)cc1)C1CCC1	21.1 (≈ 60.6 µM)
CN(Cc1ccccc1)C(=O)COC(=O)Cc1ccc(Cl)cc1	46.3 (≈ 140 µM)
CC(CNS(=O)(=O)c1ccc(Br)cc1)CN(C)C (centres undefined)	> 50.3
CC1CN(C(=O)c2cc3cc(F)ccc3[nH]2)CC(C)O1 (centres undefined)	32.2 (≈ 117 µM)
CCNC(=O)COc1ncnc2scc(-c3ccc(F)cc3)c12	> 49.7

SMILES	solubility kinetic [µg/mL]
COc1ccc(C2=CSC3=NCCN23)cc1[N+](=O)[O-]	40.2 (≈ 145 µM)
CCN(CC)Cc1nc2c(c(=O)[nH]1)C(CC)(CC)Cc1ccccc1-2	1.7 (≈ 5.01 µM)
COCc1cc(=O)[nH]c(/N=C(\N)Nc2cccc(Cl)c2)n1	2.7 (≈ 8.77 µM)
CC(C(=O)OCC(=O)Nc1ccc(S(N)(=O)=O)cc1)N1C(=O)c2ccccc2C1=O (centres undefined)	> 64.7
CC(=O)c1c(C)oc2ccc(NS(=O)(=O)c3ccc(C)cc3)cc12	< 0.7
CC(=O)/C=C1/C(=O)Nc2ccccc21	> 28.1
CCn1c(SCc2ccccc2)nc2cc(S(N)(=O)=O)ccc21	2.2 (≈ 6.33 µM)
O=S(=O)(Cc1ccccc1)NCCc1cccc(Cl)c1	40.5 (≈ 131 µM)
CC(C)(C)[C@]1(O)CCN2C[C@H]3c4ccccc4CCc4cccc(c43)[C@@H]2C1.Cl	59.3
CCC(C)N1C(=O)CN(C2CCCCCC2)C(=O)C1c1ccccc1F (centres undefined)	19.6 (≈ 54.4 µM)
Cc1ccc2c(c1)C1(OCCCO1)C(=O)N2	> 32.9
Cc1ccnc(SCC(=O)Nc2cccc(S(=O)(=O)N3CCOCC3)c2)n1	> 61.3
COc1ccc(CCNC(=O)c2ccccc2C(=O)NCCc2ccc(OC)cc2)cc1	2.2 (≈ 5.09 µM)
CN(CCN(C)C(C)(C)C)C(=O)C(c1ccccc1)c1ccccc1	48 (≈ 142 µM)
Cc1ccc(OCC(=O)NCCNC(=O)c2ccco2)cc1C	> 47.5
Cc1cc(C)n2nc(C(=O)OCC(=O)c3ccccc3)nc2n1	> 46.5
COc1ccc(/C=C/C(=O)NCCc2nc3ccccc3[nH]2)cc1	9.9 (≈ 30.8 µM)
CCOC(=O)Nc1cc(NC(=O)OCC)c(C)nc1C	> 42.2
CC1CCCN(C(=O)Cc2cccc3ccccc23)C1 (centres undefined)	38.3 (≈ 143 µM)

— PubChem BioAssay AID1996
